Source: ChEMBL document CHEMBL4325862, “Identification of novel quinazoline derivatives as potent antiplasmodial agents” (Eur J Med Chem, 2019)
Activity calls are given as the source filed them. The rule behind the calls is not given here.

Columns and labels:
Plasmodium falciparum [1] = assay: Antiplasmodial activity against asynchronous form of Plasmodium falciparum 3D7 infected in human erythrocytes assessed as parasite growth inhibition after 48 hrs by SYBR green1 staining based flow cytometry; assay type: functional, organism-based; conditions: 3D7, 48 h
Plasmodium falciparum [2] = assay: Antiplasmodial activity against asynchronous form of Plasmodium falciparum 3D7 infected in human erythrocytes assessed as parasite growth inhibition at 10 uM after 48 hrs by SYBR green1 staining based flow cytometry relative to control; assay type: functional; conditions: 3D7, 48 h
[3] = target: T1, DNA (cytosine-5)-methyltransferase 3A (Homo sapiens, UniProt Q9Y6K1); assay: Inhibition of recombinant human DNMT3a C-terminal catalytic domain (623 to 908 residues) at 10 uM using 5'-biotinylated/3'-FAM-oligonucleotide as substrate measured after 1 hr in presence of Adomet by fluorescence assay relative to control
Plasmodium berghei [4] = assay: Antimalarial activity against Plasmodium berghei ANKA infected in BALB/c mouse assessed as reduction in parasitemia at 10 mg/kg, po administered once daily for 4 days by Giemsa-staining based microscopic analysis; assay type: functional, organism-based
[5] = target: T1, DNA (cytosine-5)-methyltransferase 3A; assay: Inhibition of recombinant human DNMT3a C-terminal catalytic domain (623 to 908 residues) using 5'-biotinylated/3'-FAM-oligonucleotide as substrate measured after 1 hr in presence of Adomet by fluorescence assay
HFF = assay: Cytotoxicity against HFF; assay type: cell-based; conditions: Homo sapiens
Plasmodium falciparum [6] = assay: Antiplasmodial activity against Plasmodium falciparum Dd2 infected in human erythrocytes assessed as reduction in [3H]-hypoxanthine incorporation measured after 48 hrs by microbeta liquid scintillation counting method; assay type: functional, organism-based
[7] = Selectivity index, ratio of IC50 for mouse spleen cells to IC50 for asynchronous form of Plasmodium falciparum 3D7 infected in human erythrocytes; assay type: toxicity, cell-based; conditions: read-out: Ratio IC50
Plasmodium berghei [8] = assay: Antimalarial activity against Plasmodium berghei ANKA infected in BALB/c mouse assessed as parasitemia at 50 mg/kg, po administered twice daily for 4 days measured up to 14 days post infection by Giemsa-staining based microscopic analysis (reference value: 31 to 58%); assay type: functional
[9] = target: DNA (cytosine-5)-methyltransferase 1 (Homo sapiens, UniProt P26358); assay: Inhibition of recombinant human DNMT1 using biotinylated DNA duplex as substrate measured after 2 hrs in presence of Adomet/[methyl-3H]Adomet by topcount method
Plasmodium falciparum [10] = assay: Antiplasmodial activity against asynchronous form of Plasmodium falciparum W2 infected in human erythrocytes assessed as parasite growth inhibition after 48 hrs by SYBR green1 staining based flow cytometry; assay type: functional, organism-based; conditions: W2, 48 h
[11] = Acute toxicity in Crl:NRMI mouse assessed as death at 50 mg/kg, iv measured after 15 to 180 mins by LC-MS/MS analysis; assay type: organism-based; conditions: in vivo
[12] = Plasma concentration in Crl:NRMI mouse at 50 mg/kg, po administered via gavage measured after 30 mins by LC-MS/MS analysis; assay type: ADME, organism-based
[13] = Stability in phosphate buffered saline at pH 7.4 after 24 hrs by UV/RP-HPLC analysis; assay type: physicochemical; conditions: buffer, pH 7.4, 24 h
[14] = target: T2, Histone-lysine N-methyltransferase EHMT2 (Homo sapiens, UniProt Q96KQ7); assay: Inhibition of recombinant human N-terminal GST-fused G9a (786 to 1210 residues) expressed in Escherichia coli using biotinylated H3 (1 to 21 residues) as substrate measured after 1 hr in presence of 3H-Adomet by filter binding assay
T2 sequence (Q96KQ7 whole entry): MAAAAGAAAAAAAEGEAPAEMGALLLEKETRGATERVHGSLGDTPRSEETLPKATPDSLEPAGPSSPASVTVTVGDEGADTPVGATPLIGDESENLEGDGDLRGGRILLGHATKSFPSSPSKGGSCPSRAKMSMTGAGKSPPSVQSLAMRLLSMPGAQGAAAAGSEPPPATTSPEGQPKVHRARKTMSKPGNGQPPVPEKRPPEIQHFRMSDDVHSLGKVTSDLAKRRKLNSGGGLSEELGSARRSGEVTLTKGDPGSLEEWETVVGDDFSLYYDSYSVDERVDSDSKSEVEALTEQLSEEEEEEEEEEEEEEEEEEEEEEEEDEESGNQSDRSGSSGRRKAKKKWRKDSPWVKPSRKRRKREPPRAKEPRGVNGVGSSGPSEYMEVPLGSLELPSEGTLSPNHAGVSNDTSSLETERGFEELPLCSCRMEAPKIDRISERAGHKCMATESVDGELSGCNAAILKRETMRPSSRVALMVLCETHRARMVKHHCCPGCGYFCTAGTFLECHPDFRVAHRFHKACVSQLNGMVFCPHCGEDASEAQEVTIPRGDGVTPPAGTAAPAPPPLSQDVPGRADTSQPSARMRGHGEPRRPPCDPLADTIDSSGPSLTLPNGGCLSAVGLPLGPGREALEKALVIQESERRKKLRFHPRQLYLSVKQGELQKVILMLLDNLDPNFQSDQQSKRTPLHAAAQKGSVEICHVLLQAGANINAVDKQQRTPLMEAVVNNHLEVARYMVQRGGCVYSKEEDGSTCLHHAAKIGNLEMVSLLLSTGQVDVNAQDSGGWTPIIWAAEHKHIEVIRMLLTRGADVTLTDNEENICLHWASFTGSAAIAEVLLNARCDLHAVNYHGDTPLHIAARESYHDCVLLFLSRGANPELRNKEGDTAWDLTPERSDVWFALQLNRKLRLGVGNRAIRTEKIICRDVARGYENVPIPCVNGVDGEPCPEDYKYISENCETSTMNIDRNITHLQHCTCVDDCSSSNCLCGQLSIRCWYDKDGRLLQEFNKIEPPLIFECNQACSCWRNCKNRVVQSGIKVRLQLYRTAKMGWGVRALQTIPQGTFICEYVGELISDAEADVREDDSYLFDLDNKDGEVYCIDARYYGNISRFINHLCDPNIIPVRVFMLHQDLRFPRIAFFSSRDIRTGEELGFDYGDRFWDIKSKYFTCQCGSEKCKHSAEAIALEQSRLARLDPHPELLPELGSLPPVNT

[15] = Plasma concentration in Crl:NRMI mouse at 50 mg/kg, po administered via gavage measured after 60 mins by LC-MS/MS analysis; assay type: ADME, organism-based
[16] = Cytotoxicity against mouse spleen cells; assay type: cell-based
[17] = Plasma concentration in Crl:NRMI mouse at 50 mg/kg, po administered via gavage measured after 180 mins by LC-MS/MS analysis; assay type: ADME, organism-based
Plasmodium berghei [18] = assay: Antimalarial activity against Plasmodium berghei ANKA infected in BALB/c mouse assessed as reduction in parasitemia at 50 mg/kg, po administered twice daily for 4 days by Giemsa-staining based microscopic analysis; assay type: functional, organism-based
[19] = test system: Plasmodium falciparum 3D7; assay: Inhibition of Plasmodium falciparum 3D7 HDAC assessed as increase in histone H4 acetylation at 3 times antiplasmodial IC50 relative to control
Plasmodium berghei [20] = assay: Antimalarial activity against Plasmodium berghei ANKA infected in BALB/c mouse assessed as reduction in parasitemia at 50 mg/kg, po administered twice daily (one dose iv and one dose po) for 4 days by Giemsa-staining based microscopic analysis; assay type: functional, organism-based
[21] = Plasma concentration in Crl:NRMI mouse at 50 mg/kg, iv measured after 60 mins by LC-MS/MS analysis; assay type: ADME, organism-based
[22] = Plasma concentration in Crl:NRMI mouse at 50 mg/kg, iv measured after 15 mins by LC-MS/MS analysis; assay type: ADME, organism-based
[23] = Plasma concentration in Crl:NRMI mouse at 50 mg/kg, iv measured after 180 mins by LC-MS/MS analysis; assay type: ADME, organism-based

T1 sequence (Q9Y6K1 whole entry, looked up, the tested form may be a part): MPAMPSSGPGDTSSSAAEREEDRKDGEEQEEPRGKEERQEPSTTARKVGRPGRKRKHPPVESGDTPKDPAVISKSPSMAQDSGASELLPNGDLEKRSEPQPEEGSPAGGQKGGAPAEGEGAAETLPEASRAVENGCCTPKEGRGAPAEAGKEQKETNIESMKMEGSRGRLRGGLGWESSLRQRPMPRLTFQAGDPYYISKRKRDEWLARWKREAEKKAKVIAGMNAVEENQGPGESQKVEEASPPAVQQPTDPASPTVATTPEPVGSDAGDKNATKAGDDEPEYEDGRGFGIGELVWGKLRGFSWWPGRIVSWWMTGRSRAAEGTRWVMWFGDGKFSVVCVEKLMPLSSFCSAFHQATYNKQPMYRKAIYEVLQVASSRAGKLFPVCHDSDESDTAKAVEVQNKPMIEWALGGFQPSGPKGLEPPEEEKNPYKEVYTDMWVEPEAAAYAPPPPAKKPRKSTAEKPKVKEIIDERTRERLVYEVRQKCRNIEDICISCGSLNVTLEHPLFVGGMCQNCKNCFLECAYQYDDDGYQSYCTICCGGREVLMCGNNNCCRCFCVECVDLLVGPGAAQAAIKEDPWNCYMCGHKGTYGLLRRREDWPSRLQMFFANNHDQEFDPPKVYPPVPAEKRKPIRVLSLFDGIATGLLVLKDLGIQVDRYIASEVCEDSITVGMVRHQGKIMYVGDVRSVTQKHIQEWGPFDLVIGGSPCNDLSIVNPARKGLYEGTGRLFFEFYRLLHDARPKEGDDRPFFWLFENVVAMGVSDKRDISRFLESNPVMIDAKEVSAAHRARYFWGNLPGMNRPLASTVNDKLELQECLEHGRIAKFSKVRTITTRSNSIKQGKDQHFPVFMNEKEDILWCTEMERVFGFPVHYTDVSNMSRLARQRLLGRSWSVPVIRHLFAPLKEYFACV
DNA (cytosine-5)-methyltransferase 1, sequence (P26358 whole entry): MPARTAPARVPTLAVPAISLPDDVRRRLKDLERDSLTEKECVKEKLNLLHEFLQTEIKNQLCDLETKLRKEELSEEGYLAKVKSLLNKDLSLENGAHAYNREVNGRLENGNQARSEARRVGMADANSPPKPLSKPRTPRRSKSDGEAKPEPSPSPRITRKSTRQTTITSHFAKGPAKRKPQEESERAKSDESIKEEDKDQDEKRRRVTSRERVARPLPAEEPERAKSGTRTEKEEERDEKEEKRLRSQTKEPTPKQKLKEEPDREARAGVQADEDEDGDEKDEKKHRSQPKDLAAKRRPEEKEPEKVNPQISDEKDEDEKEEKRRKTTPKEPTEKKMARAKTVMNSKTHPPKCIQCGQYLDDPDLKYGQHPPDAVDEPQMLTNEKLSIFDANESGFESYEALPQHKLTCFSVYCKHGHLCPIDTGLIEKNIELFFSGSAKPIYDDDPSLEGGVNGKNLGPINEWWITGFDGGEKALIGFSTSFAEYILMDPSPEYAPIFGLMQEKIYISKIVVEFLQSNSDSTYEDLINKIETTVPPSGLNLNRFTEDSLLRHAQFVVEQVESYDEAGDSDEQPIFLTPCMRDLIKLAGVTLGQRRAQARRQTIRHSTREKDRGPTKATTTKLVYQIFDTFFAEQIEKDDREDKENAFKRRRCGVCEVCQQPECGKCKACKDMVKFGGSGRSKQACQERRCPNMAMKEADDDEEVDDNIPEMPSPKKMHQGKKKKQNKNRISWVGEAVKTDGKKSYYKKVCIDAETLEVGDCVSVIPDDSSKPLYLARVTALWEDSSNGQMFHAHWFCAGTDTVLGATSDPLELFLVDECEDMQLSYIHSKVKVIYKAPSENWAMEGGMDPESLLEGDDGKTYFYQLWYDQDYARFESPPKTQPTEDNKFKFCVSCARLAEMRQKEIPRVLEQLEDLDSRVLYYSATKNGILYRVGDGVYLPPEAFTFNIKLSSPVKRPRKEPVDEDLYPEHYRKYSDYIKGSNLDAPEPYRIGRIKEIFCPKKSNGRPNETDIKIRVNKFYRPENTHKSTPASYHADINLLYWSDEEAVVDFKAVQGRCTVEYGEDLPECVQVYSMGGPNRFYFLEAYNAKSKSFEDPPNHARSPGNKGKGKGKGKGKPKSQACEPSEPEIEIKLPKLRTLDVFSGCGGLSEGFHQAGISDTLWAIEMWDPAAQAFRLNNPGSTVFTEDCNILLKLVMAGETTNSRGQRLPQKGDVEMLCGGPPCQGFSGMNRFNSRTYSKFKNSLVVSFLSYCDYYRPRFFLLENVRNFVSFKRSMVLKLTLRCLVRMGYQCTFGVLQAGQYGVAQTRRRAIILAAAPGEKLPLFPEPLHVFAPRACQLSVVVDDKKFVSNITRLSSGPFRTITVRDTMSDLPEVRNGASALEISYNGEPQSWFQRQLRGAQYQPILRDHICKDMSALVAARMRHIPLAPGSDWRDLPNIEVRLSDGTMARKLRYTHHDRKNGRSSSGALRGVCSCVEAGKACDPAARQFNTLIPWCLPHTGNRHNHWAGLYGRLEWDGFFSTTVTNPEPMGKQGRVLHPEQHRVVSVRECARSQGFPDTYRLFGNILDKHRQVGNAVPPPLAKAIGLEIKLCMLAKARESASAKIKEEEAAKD

SMILES | IC50 (Plasmodium falciparum [1]) [nM] | inhibition at 10 µM (Plasmodium falciparum [2]) [%] | IC50 (HFF) [nM] | IC50 (Plasmodium falciparum [6]) [nM] | selectivity ratio [7] | IC50 (Plasmodium falciparum [10]) [nM] | concentration at 0.5 h [12] [nM] | Stability [13] | concentration at 1 h [15] [nM] | IC50 [16] [nM] | concentration at 3 h [17] [nM] | Activity (Plasmodium berghei [18]) | other results
COc1cc2c(NCCNc3cccc4ccccc34)nc(N3CCN(c4ccccc4)CC3)nc2cc1OCc1ccccc1 | 56.2 | 99.6 | – | – | – | – | – | – | – | – | – | – | inhibition [3]: 15%
CCN(CC)CCCC(C)Nc1ccnc2cc(Cl)ccc12 (stereo not drawn) | – | – | – | – | – | – | – | – | – | – | – | – | Activity (Plasmodium berghei [4]): Active
COc1cc2c(NC3CCN(Cc4ccccc4)CC3)nc(N3CCN(c4ccccc4)CC3)nc2cc1O | 10.1 | 100 | 7210 | 42.6 | 255 | 18.6 | 3430 to 4570 | Stable | 1040 to 3520 | 2580 | 290 to 670 | Active | EC50 [5]: 6200 nM; Activity (Plasmodium berghei [8]): <10%; EC50 [9]: > 100000 nM; Activity [11]: Toxic; EC50 [14]: > 100000 nM
O=C(CCCCSc1nc(-c2ccc(-c3ccccc3)cc2)cc(=O)[nH]1)NO | 4 to 6 | 96.1 to 97 | 3300 | 4 | 186 | 6.6 | 670 to 2430 | Stable | 480 to 900 | 785 | 70 to 300 | inactive | fold change (FC) [19]: < 2; Activity (Plasmodium berghei [20]): inactive; concentration at 1 h [21]: 1670 to 2160 nM; concentration at 0.25 h [22]: 10700 to 15200 nM; concentration at 3 h [23]: 43 to 44 nM
